Experimental findings from patent US7691584B2, “Screening of compounds for OCT3 transporter activity” (XenoPort, Inc., priority 2005, dated 2010) are described below.

One may read the IC50 as the point on the concentration scale where inhibition reaches its midpoint. A lower IC50 goes with inhibition by little substance. In general, Km refers to the concentration of substrate that gives half-maximal velocity.

The target of data set [1] is T1, hOCT3 (Homo sapiens, UniProt O75751). The experiment in a line: hOCT3 competition uptake assay (3H-MPP uptake into CHO-TREx-hOCT3 cells).
In data set [2] the target is T1, hOCT3. The experiment in a line: hOCT3 direct uptake assay (LC-MS-MS, CHO-TREx-hOCT3 cells). The conditions noted are these: specific uptake (induced minus non-induced).
The target in data set [3] is T2, PgP (Homo sapiens, UniProt P08183).
T2 construct: expressed in transfected cells; host or cells: MDCK cells transfected with tetracycline-inducible TREx-PgP
The experiment in a line: Transwell monolayer efflux assay, MDCK cells with TREx-PgP. Format: cell-based. The conditions noted are these: 2.5 nM 3H-vinblastine, in the presence of 250 μM verapamil. The protocol: Transwell monolayer efflux assays can be performed by transfecting MDCK cells with the tetracycline-inducible TREx-PgP expression vector. The cells optionally can be transfected with a nucleic acid encoding the transporter of interest. The transfected cells are seeded on polycarbonate filter membranes in transwell dishes and grown for 3-5 days, yielding a polarized monolayer with tight junctions between cells.

Substrate in data set [4]: NCCc1c[nH]cn1
The experiment in a line: cells, lysate or membranes. To be noted: other: CHO-TREx-hOCT3 cells, specific uptake (induced minus non-induced).

T2 sequence (P08183 whole entry): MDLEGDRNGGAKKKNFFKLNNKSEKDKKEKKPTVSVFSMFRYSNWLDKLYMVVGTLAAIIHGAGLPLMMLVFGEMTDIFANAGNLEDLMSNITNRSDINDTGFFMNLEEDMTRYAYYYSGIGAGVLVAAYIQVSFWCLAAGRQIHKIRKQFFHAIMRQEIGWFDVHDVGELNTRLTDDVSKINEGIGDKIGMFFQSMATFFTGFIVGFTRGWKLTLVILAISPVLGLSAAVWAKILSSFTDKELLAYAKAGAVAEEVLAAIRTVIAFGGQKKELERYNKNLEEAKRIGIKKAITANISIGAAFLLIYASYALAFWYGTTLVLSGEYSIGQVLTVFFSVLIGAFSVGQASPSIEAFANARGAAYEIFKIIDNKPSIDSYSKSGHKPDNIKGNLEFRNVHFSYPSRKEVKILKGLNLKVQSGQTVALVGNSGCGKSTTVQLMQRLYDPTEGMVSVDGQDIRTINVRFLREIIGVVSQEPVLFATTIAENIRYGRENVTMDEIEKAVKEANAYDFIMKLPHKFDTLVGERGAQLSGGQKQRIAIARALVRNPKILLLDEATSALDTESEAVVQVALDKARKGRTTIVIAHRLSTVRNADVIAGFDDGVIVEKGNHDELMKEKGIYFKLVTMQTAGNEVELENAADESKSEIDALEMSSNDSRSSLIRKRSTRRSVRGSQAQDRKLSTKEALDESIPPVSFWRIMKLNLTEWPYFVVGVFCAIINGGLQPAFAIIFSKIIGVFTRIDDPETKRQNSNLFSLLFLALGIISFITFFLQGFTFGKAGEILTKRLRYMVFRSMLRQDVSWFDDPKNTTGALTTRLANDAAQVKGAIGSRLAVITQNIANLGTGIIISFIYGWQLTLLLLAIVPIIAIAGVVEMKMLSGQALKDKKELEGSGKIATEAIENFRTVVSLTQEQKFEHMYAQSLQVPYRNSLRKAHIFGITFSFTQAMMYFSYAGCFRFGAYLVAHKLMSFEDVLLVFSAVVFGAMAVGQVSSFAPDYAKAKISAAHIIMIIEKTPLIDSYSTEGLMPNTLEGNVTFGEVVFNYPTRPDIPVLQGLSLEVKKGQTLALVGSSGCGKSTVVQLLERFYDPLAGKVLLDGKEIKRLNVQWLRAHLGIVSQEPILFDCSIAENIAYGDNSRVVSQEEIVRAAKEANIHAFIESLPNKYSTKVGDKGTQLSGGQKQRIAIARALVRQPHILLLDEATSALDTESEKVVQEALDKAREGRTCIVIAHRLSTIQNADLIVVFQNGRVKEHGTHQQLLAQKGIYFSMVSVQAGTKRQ

`NCCc1c[nH]cn1` [Histamine, histamine] came in with a 50% inhibitory concentration (IC50) in data set [1] of 150 µM. Besides, the “uptake of labeled MPP with increasing concentration of unlabeled competitor” value in data set [1] (cells induced to express OCT3, FIG. 2) was “decreased”. In data set [2], the “Direct Uptake Vmax” value worked out at 4.6 pmol/min/well.
Take `CC[C@]1(O)C[C@@H]2CN(CCc3c([nH]c4ccccc34)[C@@](C(=O)OC)(c3cc4c(cc3OC)N(C)[C@H]3[C@@](O)(C(=O)OC)[C@H](OC(C)=O)[C@]5(CC)C=CCN6CC[C@]43[C@@H]65)C2)C1` [^3H-vinblastine, vinblastine]: in data set [3], the “apical to basolateral transport” value was “strongly increased” and the “basolateral to apical transport” value is “strongly decreased”.

B1: hOCT3 (Homo sapiens) (protein)
chain: MPSFDEALQRVGEFGRFQRRVFLLLCLTGVTFAFLFVGVVFLGTQPDHYWCRGPSAAALAERCGWSPEEEWNRTAPASRGPEPPERRGRCQRYLLEAANDSASATSALSCADPLAAFPNRSAPLVPCRGGWRYAQAHSTIVSEFDLVCVNAWMLDLTQAILNLGFLTGAFTLGYAADRYGRIVIYLLSCLGVGVTGVVVAFAPNFPVFVIFRFLQGVFGKGTWMTCYVIVTEIVGSKQRRIVGIVIQMFFTLGIIILPGIAYFIPNWQGIQLAITLPSFLFLLYYWVVPESPRWLITRKKGDKALQILRRIAKCNGKYLSSNYSEITVTDEEVSNPSFLDLVRTPQMRKCTLILMFAWFTSAVVYQGLVMRLGIIGGNLYIDFFISGVVELPGALLILLTIERLGRRLPFAASNIVAGVACLVTAFLPEGIAWLRTTVATLGRLGITMAFEIVYLVNSELYPTTLRNFGVSLCSGLCDFGGIIAPFLLFRLAAVWLELPLIIFGILASICGGLVMLLPETKGIALPETVDDVEKLGSPHSCKCGRNKKTPVSRSHL
As to B1, in data set [4], the Km is 110 µM.
